“Also recorded” adds a separate entry of the source.

1 compound from patent US20110160399A1, “HISTONE MODIFICATION INHIBITOR SPECIFIC TO TARGET GENE” (NIHON UNIVERSITY, priority 2008, published 2011) can be followed below.

The assay relates to HeLa (human uterine cervical cancer cell line). Kind of assay: Cell proliferation assay (WST-8) on HeLa cells. The class given is cell-based. Particulars: for suppression of HeLa cell proliferation: 72 hours, various concentrations. The procedure: Next, the synthesized compounds were verified by WST-8 assay for their ability to suppress cancer cell proliferation.
Cell lines of HeLa (human uterine cervical cancer cell line), LOVO, RKO and SW480 (each of which was a human large bowel cancer cell line) were each cultured at 37° C. under 5% carbon dioxide conditions using Dulbecco's modified Eagle's medium (DMEM, Nacalai Tesque, Inc., Japan) supplemented with 10% fetal bovine serum (FBS: JRH bioscience, USA), antibiotics (50 U/ml penicillin and 50 μg/ml streptomycin) and 1 mM sodium pyruvate. Single-layered cells grown to 80-90% confluency on 10 cm cell culture dishes were washed with D-PBS(−) (Nacalai Tesque, Inc., Japan) and then released from the dishes by being treated with a phenol red-containing 2.5 g/L-Trypsine/1 mmol/L EDTA solution (Nacalai Tesque, Inc., Japan). The released cells were adjusted and maintained in fresh medium.
Each cell line seeded at 3×10^3 cells/well in a MICROTEST tissue culture plate (96 well, FALCON) was cultured at 37° C. under 5% carbon dioxide conditions for 24 hours, and then cultured in the presence of various concentrations of PI polyamide for an additional 72 hours. After completion of the culture, 10 μl of viable cell counting reagent SF (Nacalai Tesque, Inc., Japan) was added to each well and the absorbance at 450 nm was measured by ARVO EX (PerkinElmer). During the period from reagent addition until assay, incubation was continued at 37° C. in the presence of 5% CO2 until the absorbance reached about 1.2 to 2.0 in the control sample where only 50% DMSO was added to the cells.

In the case of `CN(C)CCCNC(=O)CCNC(=O)c1cc(NC(=O)c2nc(NC(=O)c3nc(NC(=O)CCNC(=O)c4cc(NC(=O)c5nc(NC(=O)CCCNC(=O)c6cc(NC(=O)c7nc(NC(=O)CCNC(=O)c8cc(NC(=O)c9cc(NC(=O)c%10nc(NC(=O)CCNC(=O)CCNC(=O)c%11ccc(NC(=O)CCCCCCC(=O)NO)cc%11)cn%10C)cn9C)cn8C)cn7C)cn6C)cn5C)cn4C)cn3C)cn2C)cn1C` [SAHA+p16 PIP, SAHA-ββImPyPyβImPyγImPyβImImPyβDp], the “suppression of HeLa cell proliferation” value is, setting by setting: (WST-8, FIG. 3, FIG. 4) “high antitumor effect”; (WST-8, FIG. 3, FIG. 4, listed as p16 PIP attached to the SAHA derivative) “proliferation inhibition; also recorded: inhibit proliferation”. Further, under “FIG. 4”, the “ability to suppress proliferation, compared among the 4 cancer cell lines (HeLa)” value is listed as “high”.
